Assays:
[1] = molecular target: T1, HiBit-BRM fusion protein (Homo sapiens, UniProt P51531); assay: HiBiT-BRM cell-based degradation assay (Nano-Glo HiBiT Lytic Detection, 24 h); details: HeLa cell line expressing HiBiT-BRM; for DC50: read-out: BRM HiBit Degradation IC50
T1 construct: expressed in transfected cells
Method in brief: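 Stable HiBiT-BRM HeLa line; 24 h compound exposure, top final 30 μM, 3-fold, 10 pts in duplicate. Lytic HiBiT/LgBiT luminescence readout. % degradation vs DMSO (0%) and 2 μM known BRM/BRG1 degrader (100%).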

[2] = molecular target: T2, HiBit-BRG1 fusion protein (Homo sapiens, UniProt P51532); assay: HiBiT-BRG1 cell-based degradation assay (Nano-Glo HiBiT Lytic Detection, 24 h); details: HeLa cell line expressing HiBit-BRG1 and LgBit; for Dmax: read-out: BRG1 HiBit Degradation Maximum (%); for DC50: read-out: BRMG1 HiBit Degradation IC50
T2 construct: expressed in transfected cells
Method in brief: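 Stable HeLa line co-expressing HiBit-BRG1 and LgBit, 5000 cells/well, treated 24 h in a tissue culture incubator. Lysed with Nano-Glo HiBiT lytic reagent, luminescence read. % degradation normalized to DMSO (high control) and 2 μM reference BRM/BRG1 degrader (low control).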

T1 sequence (P51531 whole entry, the tested form may be a part): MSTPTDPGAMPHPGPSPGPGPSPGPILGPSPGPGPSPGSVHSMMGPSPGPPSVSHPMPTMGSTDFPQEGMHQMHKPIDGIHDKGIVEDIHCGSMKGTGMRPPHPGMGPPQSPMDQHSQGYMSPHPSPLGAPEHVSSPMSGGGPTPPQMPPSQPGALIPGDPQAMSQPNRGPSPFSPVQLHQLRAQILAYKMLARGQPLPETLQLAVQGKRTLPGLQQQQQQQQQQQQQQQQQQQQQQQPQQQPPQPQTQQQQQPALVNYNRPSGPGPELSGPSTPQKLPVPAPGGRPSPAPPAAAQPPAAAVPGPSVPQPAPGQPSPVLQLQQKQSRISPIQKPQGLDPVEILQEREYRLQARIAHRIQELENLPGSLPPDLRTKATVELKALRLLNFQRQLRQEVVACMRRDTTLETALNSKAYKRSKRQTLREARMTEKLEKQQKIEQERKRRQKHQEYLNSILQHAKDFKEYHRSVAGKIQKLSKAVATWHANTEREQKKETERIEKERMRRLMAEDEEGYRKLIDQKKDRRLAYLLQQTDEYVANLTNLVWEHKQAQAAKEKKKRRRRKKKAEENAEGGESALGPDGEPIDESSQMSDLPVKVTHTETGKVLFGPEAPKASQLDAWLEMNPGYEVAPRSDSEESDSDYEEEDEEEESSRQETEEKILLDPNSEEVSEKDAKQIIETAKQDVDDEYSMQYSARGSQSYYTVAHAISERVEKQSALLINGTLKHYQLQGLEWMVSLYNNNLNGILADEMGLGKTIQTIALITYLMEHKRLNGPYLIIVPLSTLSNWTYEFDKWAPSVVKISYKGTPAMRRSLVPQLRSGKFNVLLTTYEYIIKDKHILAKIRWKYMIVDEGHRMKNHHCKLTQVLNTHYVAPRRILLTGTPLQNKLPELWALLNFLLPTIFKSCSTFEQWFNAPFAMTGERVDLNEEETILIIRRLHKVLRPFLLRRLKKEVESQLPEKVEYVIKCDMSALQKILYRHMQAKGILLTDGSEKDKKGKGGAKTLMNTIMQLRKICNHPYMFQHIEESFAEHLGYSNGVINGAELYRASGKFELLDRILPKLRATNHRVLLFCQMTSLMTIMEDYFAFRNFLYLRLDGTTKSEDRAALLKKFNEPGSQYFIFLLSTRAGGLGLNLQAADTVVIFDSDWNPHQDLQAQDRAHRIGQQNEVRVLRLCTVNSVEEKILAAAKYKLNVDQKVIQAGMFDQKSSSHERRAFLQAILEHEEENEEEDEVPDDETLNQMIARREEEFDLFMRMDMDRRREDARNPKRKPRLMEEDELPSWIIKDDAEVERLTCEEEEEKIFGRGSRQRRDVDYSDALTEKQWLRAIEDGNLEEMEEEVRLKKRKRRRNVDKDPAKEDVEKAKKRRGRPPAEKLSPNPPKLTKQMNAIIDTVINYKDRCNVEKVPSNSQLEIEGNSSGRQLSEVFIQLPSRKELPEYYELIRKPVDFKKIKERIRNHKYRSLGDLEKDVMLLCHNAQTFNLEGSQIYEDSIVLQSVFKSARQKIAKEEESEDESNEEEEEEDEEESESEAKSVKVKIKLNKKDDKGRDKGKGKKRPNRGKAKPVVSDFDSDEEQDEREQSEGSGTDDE
T2 sequence (P51532 whole entry, the tested form may be a part): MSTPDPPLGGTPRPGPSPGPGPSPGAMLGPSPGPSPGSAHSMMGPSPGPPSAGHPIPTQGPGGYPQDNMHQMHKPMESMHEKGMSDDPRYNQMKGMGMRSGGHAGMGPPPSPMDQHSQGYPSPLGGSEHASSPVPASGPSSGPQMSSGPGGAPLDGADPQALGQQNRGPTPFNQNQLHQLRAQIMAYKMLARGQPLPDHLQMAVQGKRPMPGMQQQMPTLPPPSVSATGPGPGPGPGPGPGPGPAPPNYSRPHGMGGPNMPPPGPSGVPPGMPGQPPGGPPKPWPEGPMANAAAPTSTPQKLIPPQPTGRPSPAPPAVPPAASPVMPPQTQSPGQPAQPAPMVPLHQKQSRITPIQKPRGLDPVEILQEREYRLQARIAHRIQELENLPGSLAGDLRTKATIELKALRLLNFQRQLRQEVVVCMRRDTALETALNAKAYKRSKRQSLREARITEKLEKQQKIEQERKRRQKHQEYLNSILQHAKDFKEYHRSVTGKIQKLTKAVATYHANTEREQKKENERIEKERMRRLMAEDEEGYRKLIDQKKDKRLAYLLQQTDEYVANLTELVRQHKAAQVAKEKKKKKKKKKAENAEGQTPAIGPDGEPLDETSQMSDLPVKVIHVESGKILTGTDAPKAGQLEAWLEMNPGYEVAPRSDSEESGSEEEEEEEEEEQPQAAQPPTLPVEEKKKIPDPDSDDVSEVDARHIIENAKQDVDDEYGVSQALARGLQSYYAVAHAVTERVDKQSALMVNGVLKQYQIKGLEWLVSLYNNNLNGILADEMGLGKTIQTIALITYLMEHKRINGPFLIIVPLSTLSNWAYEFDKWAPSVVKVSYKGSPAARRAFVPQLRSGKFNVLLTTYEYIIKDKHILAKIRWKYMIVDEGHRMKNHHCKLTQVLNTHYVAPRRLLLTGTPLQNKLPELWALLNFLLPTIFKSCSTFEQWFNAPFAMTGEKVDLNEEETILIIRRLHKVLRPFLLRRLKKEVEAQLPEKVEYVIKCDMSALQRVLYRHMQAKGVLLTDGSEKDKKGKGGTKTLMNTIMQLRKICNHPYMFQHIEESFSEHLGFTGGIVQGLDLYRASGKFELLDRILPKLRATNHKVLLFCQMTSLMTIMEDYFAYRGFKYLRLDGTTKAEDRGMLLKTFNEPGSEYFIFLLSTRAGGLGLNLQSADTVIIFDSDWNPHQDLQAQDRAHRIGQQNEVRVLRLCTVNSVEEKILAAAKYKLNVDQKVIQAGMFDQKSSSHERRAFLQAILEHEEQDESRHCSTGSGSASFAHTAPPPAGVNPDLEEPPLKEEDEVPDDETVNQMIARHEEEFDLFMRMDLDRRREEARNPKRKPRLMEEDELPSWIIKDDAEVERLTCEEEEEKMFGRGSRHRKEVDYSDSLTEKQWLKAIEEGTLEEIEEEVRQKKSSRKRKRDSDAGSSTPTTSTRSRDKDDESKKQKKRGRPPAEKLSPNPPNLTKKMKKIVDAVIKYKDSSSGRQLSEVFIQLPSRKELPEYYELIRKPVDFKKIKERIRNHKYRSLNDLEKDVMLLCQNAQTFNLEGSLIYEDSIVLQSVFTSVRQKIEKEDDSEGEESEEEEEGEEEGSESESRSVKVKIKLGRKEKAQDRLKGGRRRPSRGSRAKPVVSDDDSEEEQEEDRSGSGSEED

DC50 [1] [nM] | Dmax [2] [%] | DC50 [2] [nM] | SMILES | BRM HiBit Degradation Maximum (%) [1]
> 100 | > 75 | > 100 | Cc1ncsc1-c1ccc([C@H](C)NC(=O)[C@@H]2C[C@@H](O)CN2C(=O)[C@@H](c2cc(N3CCN(CCC(=O)N4CC(c5c[nH]c6nnc(-c7ccccc7O)cc56)C4)CC3)no2)C(C)C)cc1 (racemic) [Compound 251, (2S,4R)-4-hydroxy-1-((R)-2-(3-(4-(3-(3-(3-(2-hydroxyphenyl)-7H-pyrrolo[2,3-c]pyridazin-5-yl)azetidin-1-yl)-3-oxopropyl)piperazin-1-yl)isoxazol-5-yl)-3-methylbutanoyl)-N-((S)-1-(4-(4-methylthiazol-5-yl)phenyl)ethyl)pyrrolidine-2-carboxamide] | A (“A” indicates maximum degradation ≥ 75%)
– | < 50 | – | Cc1ncsc1-c1ccc([C@H](C)NC(=O)[C@@H]2C[C@@H](O)CN2C(=O)[C@H](c2cc(N3CCN(C(=O)c4cc5cc(-c6ccccc6O)nnc5[nH]4)CC3)no2)C(C)C)cc1 (racemic) [Compound 252, (2S,4R)-4-hydroxy-1-((S)-2-(3-(4-(3-(2-hydroxyphenyl)-7H-pyrrolo[2,3-c]pyridazine-6-carbonyl)piperazin-1-yl)isoxazol-5-yl)-3-methylbutanoyl)-N-((S)-1-(4-(4-methylthiazol-5-yl)phenyl)ethyl)pyrrolidine-2-carboxamide] | C (“C” indicates maximum degradation < 50%)
> 100 | > 75 | > 100 | Cc1ncsc1-c1ccc([C@H](C)NC(=O)[C@@H]2C[C@@H](O)CN2C(=O)[C@@H](c2cc(N3CCN(C(=O)c4cc5cc(-c6ccccc6O)nnc5[nH]4)CC3)no2)C(C)C)cc1 (racemic) [Compound 253, (2S,4R)-4-hydroxy-1-((R)-2-(3-(4-(3-(2-hydroxyphenyl)-7H-pyrrolo[2,3-c]pyridazine-6-carbonyl)piperazin-1-yl)isoxazol-5-yl)-3-methylbutanoyl)-N-((S)-1-(4-(4-methylthiazol-5-yl)phenyl)ethyl)pyrrolidine-2-carboxamide] | A (“A” indicates maximum degradation ≥ 75%)
> 10 | < 50 | – | Cc1ncsc1-c1ccc([C@H](C)NC(=O)[C@@H]2C[C@@H](O)CN2C(=O)[C@@H](c2cc(OCCN3CC(c4c(C)[nH]c5nnc(-c6ccccc6O)cc45)C3)no2)C(C)C)cc1 (racemic) [Compound 254, (2S,4R)-4-hydroxy-1-((R)-2-(3-(2-(3-(3-(2-hydroxyphenyl)-6-methyl-7H-pyrrolo[2,3-c]pyridazin-5-yl)azetidin-1-yl)ethoxy)isoxazol-5-yl)-3-methylbutanoyl)-N-((S)-1-(4-(4-methylthiazol-5-yl)phenyl)ethyl)pyrrolidine-2-carboxamide] | A (“A” indicates maximum degradation ≥ 75%)
> 100 | < 50 | – | Cc1ncsc1-c1ccc([C@H](C)NC(=O)[C@@H]2C[C@@H](O)CN2C(=O)[C@@H](c2cc(N(C)CCN3CC(c4cc5cc(-c6ccccc6O)nnc5[nH]4)C3)no2)C(C)C)cc1 (racemic) [Compound 256] | A (“A” indicates maximum degradation ≥ 75%)
– | < 50 | – | Cc1ncsc1-c1ccc([C@H](C)NC(=O)[C@@H]2C[C@@H](O)CN2C(=O)[C@H](c2cc(N(C)CCN3CC(c4cc5cc(-c6ccccc6O)nnc5[nH]4)C3)no2)C(C)C)cc1 (racemic) [Compound 257, (2S,4R)-4-hydroxy-1-((S)-2-(3-((2-(3-(3-(2-hydroxyphenyl)-7H-pyrrolo[2,3-c]pyridazin-6-yl)azetidin-1-yl)ethyl)(methyl)amino)isoxazol-5-yl)-3-methylbutanoyl)-N-((S)-1-(4-(4-methylthiazol-5-yl)phenyl)ethyl)pyrrolidine-2-carboxamide] | C (“C” indicates maximum degradation < 50%)
< 10 | > 75 | > 10 | Cc1ncsc1-c1ccc([C@H](C)NC(=O)[C@@H]2C[C@@H](O)CN2C(=O)[C@@H](c2cc(OCCN3CC[C@H](c4[nH]c5nnc(-c6ccccc6O)cc5c4C)C3)no2)C(C)C)cc1 (racemic) [Compound 258, (2S,4R)-4-hydroxy-1-((R)-2-(3-(2-((S)-3-(3-(2-hydroxyphenyl)-5-methyl-7H-pyrrolo[2,3-c]pyridazin-6-yl)pyrrolidin-1-yl)ethoxy)isoxazol-5-yl)-3-methylbutanoyl)-N-((S)-1-(4-(4-methylthiazol-5-yl)phenyl)ethyl)pyrrolidine-2-carboxamide] | A (“A” indicates maximum degradation ≥ 75%)
< 10 | > 75 | > 10 | Cc1ncsc1-c1ccc([C@H](C)NC(=O)[C@@H]2C[C@@H](O)CN2C(=O)[C@@H](c2cc(OCCN3CC[C@@H](c4[nH]c5nnc(-c6ccccc6O)cc5c4C)C3)no2)C(C)C)cc1 (racemic) [Compound 259, (2S,4R)-4-hydroxy-1-((R)-2-(3-(2-((R)-3-(3-(2-hydroxyphenyl)-5-methyl-7H-pyrrolo[2,3-c]pyridazin-6-yl)pyrrolidin-1-yl)ethoxy)isoxazol-5-yl)-3-methylbutanoyl)-N-((S)-1-(4-(4-methylthiazol-5-yl)phenyl)ethyl)pyrrolidine-2-carboxamide] | A (“A” indicates maximum degradation ≥ 75%)
> 10 | < 50 | – | Cc1ncsc1-c1ccc([C@H](C)NC(=O)[C@@H]2C[C@@H](O)CN2C(=O)[C@@H](c2cc(OCCN3CCC[C@H]3c3cc4cc(-c5ccccc5O)nnc4[nH]3)no2)C(C)C)cc1 (racemic) [Compound 260, (2S,4R)-4-hydroxy-1-((R)-2-(3-(2-((S)-2-(3-(2-hydroxyphenyl)-7H-pyrrolo[2,3-c]pyridazin-6-yl)pyrrolidin-1-yl)ethoxy)isoxazol-5-yl)-3-methylbutanoyl)-N-((S)-1-(4-(4-methylthiazol-5-yl)phenyl)ethyl)pyrrolidine-2-carboxamide] | B (“B” indicates maximum degradation ≥ 50%)
– | < 50 | – | Cc1ncsc1-c1ccc([C@H](C)NC(=O)[C@@H]2C[C@@H](O)CN2C(=O)[C@@H](c2cc(OCCN3CCC[C@@H]3c3cc4cc(-c5ccccc5O)nnc4[nH]3)no2)C(C)C)cc1 (racemic) [Compound 261, (2S,4R)-4-hydroxy-1-((R)-2-(3-(2-((R)-2-(3-(2-hydroxyphenyl)-7H-pyrrolo[2,3-c]pyridazin-6-yl)pyrrolidin-1-yl)ethoxy)isoxazol-5-yl)-3-methylbutanoyl)-N-((S)-1-(4-(4-methylthiazol-5-yl)phenyl)ethyl)pyrrolidine-2-carboxamide] | C (“C” indicates maximum degradation < 50%)
> 10 | < 50 | – | Cc1ncsc1-c1ccc([C@H](C)NC(=O)[C@@H]2C[C@@H](O)CN2C(=O)[C@@H](c2cc(OCCN3CC[C@@H](c4c[nH]c5nnc(-c6ccccc6O)cc45)C3)no2)C(C)C)cc1 (racemic) [Compound 262, (2S,4R)-4-hydroxy-1-((R)-2-(3-(2-((S)-3-(3-(2-hydroxyphenyl)-7H-pyrrolo[2,3-c]pyridazin-5-yl)pyrrolidin-1-yl)ethoxy)isoxazol-5-yl)-3-methylbutanoyl)-N-((S)-1-(4-(4-methylthiazol-5-yl)phenyl)ethyl)pyrrolidine-2-carboxamide] | B (“B” indicates maximum degradation ≥ 50%)
> 100 | > 75 | > 1000 | Cc1ncsc1-c1ccc([C@H](C)NC(=O)[C@@H]2C[C@@H](O)CN2C(=O)[C@@H](c2cc(N3CCN(CC(=O)N4CC(c5cc6cc(-c7ccccc7O)nnc6[nH]5)C4)CC3)no2)C(C)C)cc1 (racemic) [Compound 263, (2S,4R)-4-hydroxy-1-((R)-2-(3-(4-(2-(3-(3-(2-hydroxyphenyl)-7H-pyrrolo[2,3-c]pyridazin-6-yl)azetidin-1-yl)-2-oxoethyl)piperazin-1-yl)isoxazol-5-yl)-3-methylbutanoyl)-N-((S)-1-(4-(4-methylthiazol-5-yl)phenyl)ethyl)pyrrolidine-2-carboxamide] | A (“A” indicates maximum degradation ≥ 75%)
– | < 50 | – | Cc1ncsc1-c1ccc([C@H](C)NC(=O)[C@@H]2C[C@@H](O)CN2C(=O)C(c2cc(N3CCC(C(=O)N4CC(c5cc6cc(-c7ccccc7O)nnc6[nH]5)C4)CC3)no2)C(C)C)cc1 (mixture of isomers) [Compound 264, (2S,4R)-4-hydroxy-1-((R)-2-(3-(4-(3-(3-(2-hydroxyphenyl)-7H-pyrrolo[2,3-c]pyridazin-6-yl)azetidine-1-carbonyl)piperidin-1-yl)isoxazol-5-yl)-3-methylbutanoyl)-N-((S)-1-(4-(4-methylthiazol-5-yl)phenyl)ethyl)pyrrolidine-2-carboxamide] | C (“C” indicates maximum degradation < 50%)
> 100 | < 50 | – | Cc1ncsc1-c1ccc([C@H](C)NC(=O)[C@@H]2C[C@@H](O)CN2C(=O)[C@@H](c2cc(OCCN3CCC(c4c(C)[nH]c5nnc(-c6ccccc6O)cc45)CC3)no2)C(C)C)cc1 (racemic) [Compound 265, (2S,4R)-4-hydroxy-1-[(2R)-2-[3-(2-{4-[3-(2-hydroxyphenyl)-6-methyl-7H-pyrrolo[2,3-c]pyridazin-5-yl]piperidin-1-yl}ethoxy)-1,2-oxazol-5-yl]-3-methylbutanoyl]-N-[(1S)-1-[4-(4-methyl-1,3-thiazol-5-yl)phenyl]ethyl]pyrrolidine-2-carboxamide] | A (“A” indicates maximum degradation ≥ 75%)
